# According to patent US20140371188A1, “COMPOSITIONS AND METHODS FOR INHIBITING MUSCLE ATROPHY AND INDUCING MUSCLE HYPERTROPHY” (UNIVERSITY OF IOWA RESEARCH FOUNDATION, priority 2011, published 2014):
# How the values were obtained:
# [1] = test system: tibialis anterior (TA) muscle; assay: Ursolic acid i.p., recovery from immobilization-induced skeletal muscle atrophy after remobilization; type: in vivo, mouse; conditions: TA immobilized 7 days, then remobilized; 200 mg/kg i.p. twice daily started at remobilization; vs vehicle
# Gadd45a mRNA = assay: Ursolic acid i.p., Gadd45a mRNA by qPCR in immobilized TA muscle; type: in vivo, C57BL/6 mice; conditions: ursolic acid 200 mg/kg i.p. twice a day from day 0; TA immobilized day 2; harvest day 5; vs vehicle (corn oil)
# Protocol: (§1) (A-E) Beginning on day 0, 6-8 wk old male C57BL/6 mice were given i.p. injections of ursolic acid (200 mg/kg) or an equal volume of vehicle (corn oil) twice a day. On day 2, the left tibialis anterior (TA) muscle of each mouse was immobilized. During immobilization, vehicle or ursolic acid continued to be administered via i.p. injection twice daily, and the right TA remained mobile and served as an intrasubject control. (A) On day 5, mice were euthanized and bilateral TA muscles were harvested. mRNA levels were determined with qPCR. In each mouse, mRNA levels from the immobile TA were normalized to values from the mobile TA, which were set at one. Data are means±SEM from ≧6 mice per condition. * P<0.05. (B-E) On day 8, bilateral TA muscles were harvested and weighed. (B) Effect of ursolic acid on skeletal muscle weight. In each mouse, the left (immobile) TA weight was normalized to the right (mobile) TA weight. Data are means±SEM from 10 mice per condition; ***P<0.001 by unpaired t-test. (C-E) Effect of ursolic acid on skeletal muscle fiber diameter. […]
# (§2) Exon Arrays and Quantitative Real-Time RT-PCR (qPCR) in Muscle and Myotubes—Extraction of skeletal muscle RNA and RNA hybridizations to Mouse Exon 1.0 ST arrays (Affymetrix) were performed as described previously (Ebert, S. M., et al. (2010) Mol. Endocrinol. 24, 790-799). […]
# [2] = molecular target: T1, growth hormone receptor (GHR) (Mus musculus, UniProt P16882); assay: GHR phosphorylation in serum-starved C2C12 myoblasts (anti-GHR immunoprecipitation, phospho-tyrosine immunoblot); type: cell-based; conditions: ursolic acid 10 μM, 2 minutes; C2C12 myoblasts serum-starved 6 hours; absence or presence of recombinant human growth hormone 100 ng/ml
# T1 construct: endogenous in cells; host or cells: C2C12 mouse myoblasts (ATCC CRL-1772), serum-starved for 6 hours
# T1 sequence (P16882 25-650): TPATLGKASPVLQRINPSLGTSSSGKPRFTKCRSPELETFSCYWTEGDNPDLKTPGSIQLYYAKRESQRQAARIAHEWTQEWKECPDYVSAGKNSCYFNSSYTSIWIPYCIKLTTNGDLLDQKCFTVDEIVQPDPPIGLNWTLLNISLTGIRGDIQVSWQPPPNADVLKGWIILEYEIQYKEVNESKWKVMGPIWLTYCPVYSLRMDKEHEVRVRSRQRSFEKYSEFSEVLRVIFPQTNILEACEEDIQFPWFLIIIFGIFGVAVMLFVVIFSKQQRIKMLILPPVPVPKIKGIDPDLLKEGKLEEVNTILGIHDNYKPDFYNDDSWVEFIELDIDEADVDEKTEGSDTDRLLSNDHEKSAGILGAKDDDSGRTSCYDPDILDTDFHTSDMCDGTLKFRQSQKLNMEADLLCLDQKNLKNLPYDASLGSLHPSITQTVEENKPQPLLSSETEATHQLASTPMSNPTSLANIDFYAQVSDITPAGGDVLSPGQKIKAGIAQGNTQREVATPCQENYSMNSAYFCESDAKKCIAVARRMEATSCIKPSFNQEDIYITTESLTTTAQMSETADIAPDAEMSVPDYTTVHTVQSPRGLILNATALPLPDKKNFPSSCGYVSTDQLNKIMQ
# Protocol: (§3) (A) C57BL/6 mice were fed diets lacking or containing 0.14% ursolic acid for 6 weeks before quadriceps muscles were harvested for qPCR analysis of the indicated mRNAs. mRNA levels in ursolic acid-treated mice were normalized to mRNA levels in control mice, which were set at one. Data are means±SEM from 10 mice per condition; *P<0.05, **P<0.01. (B) Cultured C2C12 myoblasts were serum-starved for 6 hours, and then incubated for 2 minutes in the absence or presence of ursolic acid (10 μM) and/or recombinant human growth hormone (100 ng/ml), as indicated. Total cellular protein extracts were subjected to immunoprecipitation with anti-GHR antibody, followed by immunoblot analysis with anti-phospho-tyrosine or anti-GHR antibodies to assess phospho-GHR and total GHR, respectively.
# C2C12 Myotube Culture and Infection—Mouse C2C12 myoblasts were obtained from ATCC (CRL-1772), and maintained at 37° C. and 5% CO2 in Dulbecco's modified Eagle's medium (DMEM) (ATCC #30-2002) containing antibiotics (100 units/ml penicillin, 100 μg/ml streptomycin sulfate) and 10% (v/v) fetal bovine serum (FBS). Myoblasts were set up for experiments on day 0 in 6-well plates at a density of 2.5×10^5 cells/well. On day 2, differentiation was induced by replacing 10% FBS with 2% horse serum. On day 7, cells were rinsed once with PBS, and then 1 ml DMEM containing adenovirus was added to each well. […]
# [3] = test system: quadriceps muscle mRNAs (IGF-I, Ar, Ppargc1a, Tfam, Nos1, Vegfa, Hk2); assay: Diet containing 0.14% ursolic acid, qPCR of quadriceps muscle mRNAs; type: in vivo, C57BL/6 mice; conditions: diet containing 0.14% ursolic acid for 6 weeks, vs control diet
# Protocol: as §3
# Exon Arrays and Quantitative Real-Time RT-PCR (qPCR) in Muscle and Myotubes—Extraction of skeletal muscle RNA and RNA hybridizations to Mouse Exon 1.0 ST arrays (Affymetrix) were performed as described previously (Ebert, S. M., et al. (2010) Mol. Endocrinol. 24, 790-799). Exon expression arrays examining the effects of Gadd45a overexpression, fasting and muscle denervation in TA muscles of C57BL/6 mice were described previously (Banduseela, V. C., et al. (2009) Physiol. Genomics 39, 141-159; Welle, S., et al. (2004) Exp. Gerontol. 39, 369-377) and can be found in the NCBI Gene Expression Omnibus under GEO Series accession numbers GSE39196, GSE20103 and GSE39195, respectively. Myotube RNA was extracted using TRIzol solution (Invitrogen), and then purified using the RNeasy kit and RNase Free DNase Set (Qiagen). qPCR analyses of mRNAs encoding mouse ATF4, Gadd45a, Bax, caspase-3 (Casp3), androgen receptor (Ar), thyroid hormone receptor-α (Thra), growth hormone receptor (Ghr), hexokinase 2 (Hk2), Suclg1, Coxl1, Tfam, Nos1, MuRF1 (Trim63), atrogin-1 (Fbxo32), cathepsin L (Ctsl), Bnip3, Cdkn1a, PGC-1α (Ppargc1a), GLUT4 (S1c2a4), LC3a (Mapl1c3a) and Vegfa were performed using TaqMan Gene Expression Assays (Applied Biosystems). For qPCR studies, first strand cDNA was synthesized in a 20 μl reaction that contained 2 μg of RNA, random hexamer primers and components of the High Capacity cDNA reverse transcription kit (Applied Biosystems). qPCR was carried out using a 7500 Fast Real-Time PCR System (Applied Biosystems). All qPCR reactions were performed in triplicate and the cycle threshold (Ct) values were averaged to give the final results. To analyze the data, the ΔCt method was used, with level of 36B4 mRNA serving as the invariant control.
# To test this, C57BL/6 mice were fed diets lacking or containing 0.14% ursolic acid for 6 weeks before quadriceps muscles were harvested for qPCR analysis. […] These effects of ursolic acid are consistent with ursolic acid's capacity to decrease Gadd45a and Cdkn1a expression.
# Cdkn1a mRNA = assay: Ursolic acid i.p., Cdkn1a mRNA by qPCR in immobilized TA muscle; type: in vivo, C57BL/6 mice; conditions: ursolic acid 200 mg/kg i.p. twice a day from day 0; TA immobilized day 2; harvest day 5; vs vehicle (corn oil)
# Protocol: as §1, §2
# [4] = general statement, no test described; cited from earlier work
# [5] = test system: immobilized tibialis anterior (TA) muscle; assay: Ursolic acid i.p., immobilization-induced skeletal muscle atrophy (TA weight, fiber diameter); type: in vivo, C57BL/6 mice; conditions: 200 mg/kg i.p. twice a day from day 0; TA immobilized day 2; harvest day 8; vs vehicle (corn oil)
# Protocol: as §1, with “diameter. (C) Data are mean fiber diameters ±SEM from 10 immobilized TA muscles per condition; ***P<0.0001 by unpaired t-test. (D) Representative cross-sections of muscle fibers immunostained with anti-laminin antibody. (E) Data are fiber size distributions of >3000 fibers from 10 immobilized TA muscles per condition.” for “diameter.”
substance,measurement,setting,value
3-β-hydroxy-urs-12-en-28-oic acid [ursolic acid],recovery of skeletal muscle mass after remobilization,[1],significantly enhanced the recovery of skeletal muscle mass
same,"Gadd45a mRNA, immobile TA normalized to mobile TA",Gadd45a mRNA,prevented induction
same,GHR phosphorylation (phospho-GHR vs total GHR),[2],increased GHR phosphorylation
same,Hk2 mRNA in quadriceps,[3],increased
same,IGF-I mRNA in quadriceps,[3],increased
same,Nos1 mRNA in quadriceps,[3],increased
same,PGC-1α (Ppargc1a) mRNA in quadriceps,[3],increased
same,Tfam mRNA in quadriceps,[3],increased
same,Vegfa mRNA in quadriceps,[3],increased
same,androgen receptor (Ar) mRNA in quadriceps,[3],increased
same,"Cdkn1a mRNA, immobile TA normalized to mobile TA",Cdkn1a mRNA,prevented induction
same,water solubility,[4],highly water-insoluble
same,"TA muscle weight, left (immobile) normalized to right (mobile)",[5],reduced the loss of muscle mass
same,size (diameter) of skeletal muscle fibers in immobilized TA muscles,[5],increased the size of skeletal muscle fibers
